# PMC10861852, “Loss of activation by GABA in vertebrate delta ionotropic glutamate receptors” (Proceedings of the National Academy of Sciences of the …, 2024)
# Changes are numbered by the printed parent chain. Like-named read-outs stand apart in the source and are kept apart here.
# How the values were obtained:
# [1] = target: T1, AcaGluD (Acanthaster planci, UniProt A0A8B7XXR5); test: Two-electrode voltage clamp, ligand-gated currents in oocytes; format: cell-based
# T1 sequence (A0A8B7XXR5 24-958): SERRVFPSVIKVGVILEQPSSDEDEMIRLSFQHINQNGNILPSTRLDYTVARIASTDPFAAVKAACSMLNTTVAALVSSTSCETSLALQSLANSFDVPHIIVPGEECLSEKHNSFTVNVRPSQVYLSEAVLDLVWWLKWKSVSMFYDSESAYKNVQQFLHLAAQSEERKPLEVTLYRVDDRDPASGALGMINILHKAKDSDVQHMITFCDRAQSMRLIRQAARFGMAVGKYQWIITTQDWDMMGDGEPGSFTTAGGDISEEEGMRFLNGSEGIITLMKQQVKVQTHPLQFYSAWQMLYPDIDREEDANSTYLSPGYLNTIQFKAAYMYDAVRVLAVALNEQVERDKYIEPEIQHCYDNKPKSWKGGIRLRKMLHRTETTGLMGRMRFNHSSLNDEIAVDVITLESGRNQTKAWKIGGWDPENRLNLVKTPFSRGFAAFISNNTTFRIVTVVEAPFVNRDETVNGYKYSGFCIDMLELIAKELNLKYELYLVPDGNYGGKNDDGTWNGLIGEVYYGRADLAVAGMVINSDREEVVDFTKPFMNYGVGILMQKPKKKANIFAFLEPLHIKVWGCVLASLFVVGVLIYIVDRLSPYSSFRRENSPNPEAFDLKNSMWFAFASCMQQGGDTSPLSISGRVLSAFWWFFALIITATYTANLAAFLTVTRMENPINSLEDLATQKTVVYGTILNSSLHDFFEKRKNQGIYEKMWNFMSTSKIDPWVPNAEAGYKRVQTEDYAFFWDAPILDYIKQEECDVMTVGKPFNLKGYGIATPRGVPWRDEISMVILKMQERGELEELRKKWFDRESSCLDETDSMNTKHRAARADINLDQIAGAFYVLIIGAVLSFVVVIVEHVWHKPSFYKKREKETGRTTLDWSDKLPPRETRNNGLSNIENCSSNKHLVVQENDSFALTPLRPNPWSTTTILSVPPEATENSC
# [2] = target: RatGluA2 AMPA receptors (Rattus norvegicus, UniProt P19491); test: Two-electrode voltage clamp, glutamate-gated current in oocytes expressing RatGluA2 and human TARPγ2; format: cell-based; conditions: n = 5
# Description: (dots) and resulting means (columns).
# [3] = target: T2, RatGluD2^Lc^-9x (Rattus norvegicus, UniProt Q63226, A654T/A686S/D753Q/K694R/N720P/N763K/P806D/Q786M/R787V/Y613F); test: Two-electrode voltage clamp, responses to ligands in mutant-expressing oocytes; format: cell-based; conditions: pentamidine 100 μM
# T2 construct: expressed in transfected cells; host or cells: Xenopus laevis oocytes injected with mRNA
# Description: If the 10 mutations discussed above drove the loss of function in vertebrate delta iGluRs, one might expect that the latter could be “reawakened” via active invertebrate delta iGluR-like mutations here. We therefore engineered mutant RatGluD2 iGluRs to contain at these positions the equivalent residues from starfish delta iGluRs. These mutants were RatGluD2^5x, containing Y613F, A686S, K694R, N720P, and P806D substitutions (pink in Fig. 6A), and RatGluD2^9x, additionally containing N763K, D753Q, Q786M, and R787V (cyan in Fig. 6A).
# Fig. 6. AcaGluD-like mutations alter RatGluD2 receptor function. (A) D-serine bound RatGluD2 from X-ray structure PDB:2v3u ([13]). Selected amino acid residues are indicated, colored, shown as sticks, and labeled 5×, 9×, 10×, and/or Lc according to the multiple mutants they were incorporated into. 10× mutant included 10×, 9×, and 5× positions. 9× included 9× and 5×. 5× included only 5×. […] (B–E) Example current responses to different neurotransmitter ligands (30 mM) and to pore blocker pentamidine (Pent, 100 μM) in oocytes expressing indicated RatGluD2 mutants. The dashed line indicates zero current baseline. (F) Individual (dots) and mean (columns) responses to ligands in oocytes expressing indicated RatGluD2 mutants (n = 4 to 5).
# [4] = tested on: D825P AcaGluD; test: Two-electrode voltage clamp, GABA-gated current before/after concanavalin A treatment; format: cell-based, Acanthaster planci; conditions: concanavalin A 10 μM, 30 mM GABA
# Description: (§1) Fig. 5. RatGluD2-like substitutions impair the ligand-gated activity of AcaGluD receptors. (A) Ligand-gated currents in oocytes expressing indicated mutant AcaGluD receptors or uninjected oocytes. (B) Maximum current amplitude (“Imax”, Upper) and relative ligand-gated current amplitude (“I/Imax”, Lower) and at wild-type (WT) and mutant AcaGluD receptors (mean ± SEM, n = 3 to 5). (C) Immunolabeling c-Myc tag in AcaGluD C-terminal. Upper, example micropgraphs. Lower, […] fluorescence units (RFU) plotted against relative radial distance, peaking at the oocyte surface. White scale bars, 100 μm. (D) AlphaFold model of two adjacent AcaGluD LBDs (rear LBD faded). Selected amino acid residues colored and shown as sticks. Magenta, drastic loss of function; cyan, moderate loss of function. […] (E) Upper, example, and Lower, summarized current responses to 30 mM GABA (“IGABA”) in WT or mutant AcaGluD-expressing oocytes before or after treatment with concanavalin A (“ConA”, 10 μM).
# [5] = tested on: F640Y AcaGluD; test: as above; format: cell-based, Acanthaster planci; conditions: concanavalin A 10 μM, 30 mM GABA
# Description: as §1
# [6] = tested on: R721K AcaGluD; test: as above; format: cell-based, Acanthaster planci; conditions: concanavalin A 10 μM, 30 mM GABA
# Description: as §1
# [7] = tested on: S713A AcaGluD; test: as above; format: cell-based, Acanthaster planci; conditions: concanavalin A 10 μM, 30 mM GABA
# Description: as §1
# [8] = target: T3, WT RatGluD2 (Rattus norvegicus, UniProt Q63226); test: Two-electrode voltage clamp in oocytes; format: cell-based; conditions: n = 4
# T3 construct: expressed in transfected cells; host or cells: Xenopus laevis oocytes injected with mRNA
# T3 sequence (Q63226 24-1007): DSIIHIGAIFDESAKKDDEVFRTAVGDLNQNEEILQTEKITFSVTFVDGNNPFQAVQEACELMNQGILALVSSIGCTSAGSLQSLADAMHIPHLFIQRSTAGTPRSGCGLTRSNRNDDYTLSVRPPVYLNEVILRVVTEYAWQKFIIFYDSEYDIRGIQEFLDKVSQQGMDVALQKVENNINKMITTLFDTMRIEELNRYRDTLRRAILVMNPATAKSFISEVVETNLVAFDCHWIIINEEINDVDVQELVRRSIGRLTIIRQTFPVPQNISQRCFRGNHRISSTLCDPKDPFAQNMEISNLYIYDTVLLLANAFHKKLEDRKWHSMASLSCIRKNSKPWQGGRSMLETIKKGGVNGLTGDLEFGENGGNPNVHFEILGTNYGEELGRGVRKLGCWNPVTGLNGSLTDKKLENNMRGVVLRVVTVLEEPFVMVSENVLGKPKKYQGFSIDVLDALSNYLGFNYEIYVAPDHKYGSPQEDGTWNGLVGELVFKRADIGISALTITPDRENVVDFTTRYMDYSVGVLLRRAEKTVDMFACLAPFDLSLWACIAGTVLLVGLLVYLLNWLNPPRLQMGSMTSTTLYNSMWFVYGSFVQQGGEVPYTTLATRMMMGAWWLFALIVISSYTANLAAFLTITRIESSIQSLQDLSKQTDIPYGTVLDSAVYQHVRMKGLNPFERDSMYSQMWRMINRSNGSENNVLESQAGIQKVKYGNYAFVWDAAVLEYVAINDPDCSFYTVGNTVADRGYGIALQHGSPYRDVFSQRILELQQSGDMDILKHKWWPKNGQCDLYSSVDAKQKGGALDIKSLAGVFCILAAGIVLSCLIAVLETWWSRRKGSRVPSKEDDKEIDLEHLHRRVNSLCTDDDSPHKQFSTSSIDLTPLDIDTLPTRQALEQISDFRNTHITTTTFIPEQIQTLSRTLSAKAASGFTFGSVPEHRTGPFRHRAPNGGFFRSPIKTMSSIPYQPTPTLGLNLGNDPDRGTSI
# [9] = target: T4, RatGluD2^Lc (Rattus norvegicus, UniProt Q63226, A654T); test: Two-electrode voltage clamp, inhibition of constitutive current in oocytes; conditions: each n = 4
# T4 sequence (Q63226 24-1007 A654T): T3 sequence (Q63226 24-1007) with A631T
# Description: (C) Left panels, example recordings of oocytes expressing A654T lurcher-mutant RatGluD2 (RatGluD2Lc) in response to indicated AMPA iGluR antagonists and D-serine. Dashed line, zero current baseline. Right panel, % inhibition at different oocytes (dots) and resulting means (columns).
# T2 sequence (Q63226 24-1007 Y613F/A654T/A686S/K694R/N720P/D753Q/N763K/Q786M/R787V/P806D): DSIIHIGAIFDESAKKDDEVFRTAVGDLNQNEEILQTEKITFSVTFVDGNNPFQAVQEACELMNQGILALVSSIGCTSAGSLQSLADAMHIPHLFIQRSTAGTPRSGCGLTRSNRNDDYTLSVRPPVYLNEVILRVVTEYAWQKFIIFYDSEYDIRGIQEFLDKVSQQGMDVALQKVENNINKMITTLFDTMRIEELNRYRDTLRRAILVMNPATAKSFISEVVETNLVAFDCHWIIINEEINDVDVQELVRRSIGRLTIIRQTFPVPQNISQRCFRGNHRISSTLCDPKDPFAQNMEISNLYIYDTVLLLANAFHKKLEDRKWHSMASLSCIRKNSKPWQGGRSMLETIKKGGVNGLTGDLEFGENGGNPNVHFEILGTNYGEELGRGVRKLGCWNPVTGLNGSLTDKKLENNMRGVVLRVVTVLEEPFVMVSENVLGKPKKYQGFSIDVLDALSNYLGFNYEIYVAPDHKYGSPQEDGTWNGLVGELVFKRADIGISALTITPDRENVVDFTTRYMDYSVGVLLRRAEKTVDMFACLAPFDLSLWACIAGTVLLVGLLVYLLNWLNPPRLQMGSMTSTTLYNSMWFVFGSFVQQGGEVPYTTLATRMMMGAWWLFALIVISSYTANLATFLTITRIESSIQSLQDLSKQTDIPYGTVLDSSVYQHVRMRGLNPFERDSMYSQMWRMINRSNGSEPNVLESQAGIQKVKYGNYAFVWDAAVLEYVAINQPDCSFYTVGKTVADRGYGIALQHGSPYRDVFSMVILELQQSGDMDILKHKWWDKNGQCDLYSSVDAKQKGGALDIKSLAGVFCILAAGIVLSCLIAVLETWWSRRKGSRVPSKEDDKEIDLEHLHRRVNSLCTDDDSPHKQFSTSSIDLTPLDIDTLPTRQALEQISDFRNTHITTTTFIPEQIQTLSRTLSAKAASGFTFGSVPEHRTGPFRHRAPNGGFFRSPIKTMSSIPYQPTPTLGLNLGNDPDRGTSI
# Sequence of RatGluA2 AMPA receptors (P19491 22-883 isoform P19491-2 limits assumed): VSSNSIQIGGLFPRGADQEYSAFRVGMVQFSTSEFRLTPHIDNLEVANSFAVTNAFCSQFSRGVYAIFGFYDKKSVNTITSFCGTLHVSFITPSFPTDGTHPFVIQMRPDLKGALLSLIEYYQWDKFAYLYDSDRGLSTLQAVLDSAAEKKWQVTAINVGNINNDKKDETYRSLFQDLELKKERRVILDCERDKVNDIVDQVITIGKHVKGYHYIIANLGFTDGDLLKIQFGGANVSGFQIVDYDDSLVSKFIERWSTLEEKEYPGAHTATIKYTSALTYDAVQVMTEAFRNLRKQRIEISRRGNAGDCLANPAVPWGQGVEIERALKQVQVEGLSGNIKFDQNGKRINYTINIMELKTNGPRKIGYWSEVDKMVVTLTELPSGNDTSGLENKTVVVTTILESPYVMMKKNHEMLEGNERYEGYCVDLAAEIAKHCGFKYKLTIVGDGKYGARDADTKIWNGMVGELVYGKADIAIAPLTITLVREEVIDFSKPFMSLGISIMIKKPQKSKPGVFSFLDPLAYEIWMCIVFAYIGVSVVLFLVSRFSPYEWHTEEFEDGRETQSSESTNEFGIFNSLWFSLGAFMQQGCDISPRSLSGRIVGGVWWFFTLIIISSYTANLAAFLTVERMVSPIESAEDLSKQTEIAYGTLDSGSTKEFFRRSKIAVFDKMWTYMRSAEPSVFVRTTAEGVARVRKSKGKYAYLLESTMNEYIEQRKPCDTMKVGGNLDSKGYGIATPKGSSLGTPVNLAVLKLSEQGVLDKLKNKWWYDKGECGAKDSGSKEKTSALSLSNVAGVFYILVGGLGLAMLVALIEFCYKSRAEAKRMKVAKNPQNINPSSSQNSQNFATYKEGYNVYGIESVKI
# Sequence of RatGluA2 AMPA receptors (Q9Y698 whole entry partner): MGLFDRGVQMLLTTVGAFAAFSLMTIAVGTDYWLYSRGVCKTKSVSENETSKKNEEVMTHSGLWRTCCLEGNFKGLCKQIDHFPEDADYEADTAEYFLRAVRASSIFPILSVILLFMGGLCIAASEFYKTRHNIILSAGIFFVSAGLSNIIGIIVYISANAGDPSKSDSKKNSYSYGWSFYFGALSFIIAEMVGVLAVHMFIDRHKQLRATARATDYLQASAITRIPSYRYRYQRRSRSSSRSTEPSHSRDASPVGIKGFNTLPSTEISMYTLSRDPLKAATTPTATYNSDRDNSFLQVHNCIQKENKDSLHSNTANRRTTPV
compound,measurement,setting,value
N=C(N)c1ccc(OCCCCCOc2ccc(C(=N)N)cc2)cc1 [pentamidine],inhibition at 100 µM,"[1]; 100 μM, n = 5, read-out: block of GABA-gated current",68 ± 5%
same,inhibition at 100 µM,"[1]; 100 µM, n = 7, read-out: block of glutamate-gated current",78 ± 2%
same,inhibition at 100 µM,[2],37 ± 3%
same,effect on glycine-gated currents,[3],inhibited
Concanavalin A,increase in current amplitude after treatment,[4],fourfold increase
same,increase in activity (GABA-gated current) after treatment,[5],> 100 fold
same,increase in activity (GABA-gated current) after treatment,[6],> 100 fold
same,increase in activity (GABA-gated current) after treatment,[7],> 100 fold
NS(=O)(=O)c1cccc2c1c([N+](=O)[O-])cc1nc(O)c(O)nc12 [NBQX],currents elicited when applied alone,"[1]; 100 μM, applied alone",elicited no currents
same,inhibition of GABA-gated current,"[1]; 100 μM, coapplied with ~EC30 GABA concentration",61 ± 3%
same,enhancement of glutamate-gated currents,"[1]; 100 μM, n = 5",34 ± 3%
same,effect on oocytes expressing WT RatGluD2,[8],no effect
same,inhibition of constitutive currents,[9],9 ± 0.2%
